The results in this text go back to patent publication US7453555B2, “Aggregometer with near ultraviolet light source” (Bio/Data Corporation, priority 2005, dated 2008).

Type in all cases: cell-based
For assay [1], the system named is platelets (platelet rich plasma). As to the kind of experiment: PAP-8E normal aggregation test, channel to channel data. Also noted: Average % Agg.: dose or concentration left out as unconfirmed. The note with it: for Average Slope: PAP-8E 340 nM LED; for Average % Agg.: PAP-8E 340 nm LED. How it is done:
This test method preferably uses a normal platelet rich plasma (PRP) that has 200,000 platelets per cubic mm, with 1 μL volume. At about 6 μm long (oval), the platelets are quite small.
The normal test volume for the PAP-8E using the UV LED's is 500 μL. Using this volume, and the 200,000 platelets per cubic mm, we can assume there are (500×200,000=) 100,000,000 platelets.
During testing the beam of radiation passes through about 25% of the PRP. The task then, is to measure how many and how fast this smaller percentage of the PRP reacts and aggregates. This is done by the measurement of the change in transmission between a platelet poor (PPP) blank and the platelet rich sample.
The channel to channel variation in the PAP-8 E is now less than 11% CV for slope reproducibility and less than 8% CV for % aggregation reproducibility.

Assay [2] concerns platelets. As to the kind of experiment: Ristocetin dilution test (factor assay), PAP-4 aggregometer with 626 nm LED. The note with it: PAP-4 626 nm LED; for 100% Avg. / 100% Slope: 100% level. From the text:
(§1) Factor assay test methods benefit from the higher sensitivity of aggregometers utilizing short-wavelength LEDs. In these methods, reference curves are developed with a standard plasma (90-120% activity of the factor) that is serially diluted (down) to an activity of 1.56% (1:64 dilution). Tests are based on the rate of change in optical density.
Table 1 below and FIGS. 4a and 4b provide test results of a factor assay test: a ristocetin dilution test using an aggregometer with a 626 nm (long-wavelength) LED.
(§2) This is a quality control test in which ristocetin/plasma are tested to select the best dilution for a lot of ristocetin reagent. The attenuation of samples was measured at 8.5 mg/ml to 11.0 mg/ml concentrations to determine a slope of each sample (see Table 1, 100% slope, 100% Avg.). The slope is known by those skilled in the art as an indicator of the rate of reaction of the ristocetin reagent. Each of the 8.5 mg/ml to 11.0 mg/ml concentration ristocetin/plasma concentrations were also respectively tested diluted to 50% (see Table 1, 50% slope, 50% Avg.). The results of Table 1 are plotted in FIGS. 4a and 4b. FIG. 4a plots the slopes for each concentration at both 100% and 50% levels. FIG. 4b plots the difference in slopes between the 100% and 50% dilution levels for each concentration. […] Such irregularity makes reliable testing and analysis decision making difficult. […]

For assay [3], the system named is platelets. As to the kind of experiment: Ristocetin dilution test (factor assay), PAP-8E aggregometer with short-wavelength LED. The note with it: for 100% Avg. / 100% Slope: 100% level. How it is done: as §1, §2
The most common use of aggregation in the United States is a test method called the Ristocetin Cofactor Assay. This assay uses standard lyophilized platelets and a plasma that contains a factor. This method uses a standard curve where the standard plasma is diluted to concentrations of 100% to 25%.

Setting [4] is: Ristocetin 8.5 mg/ml diluted to 50%.
The mark [5] stands for this setting: Ristocetin 9.0 mg/ml diluted to 50%.
Setting [6] is: Ristocetin 9.5 mg/ml diluted to 50%.
Setting [7] is: Ristocetin 10.0 mg/ml diluted to 50%.
Where [8] appears, read: Ristocetin 10.5 mg/ml diluted to 50%.
Where [9] appears, read: Ristocetin 11.0 mg/ml diluted to 50%.

Values joined by “and” are separate entries in the source; they are usually repeats but may differ in a detail not shown here. Equal values may be shown once.

Regarding `Nc1ncnc2c1ncn2[C@@H]1O[C@H](COP(=O)(O)OP(=O)(O)O)[C@@H](O)[C@H]1O` [ADP], in assay [1], the “Average Slope” value amounted to 41.3 and the “Average % Agg.” value was 72.6%.

As to `CCCCC/C=C\C/C=C\C/C=C\C/C=C\CCCC(=O)O` [Arachidonic Acid], in assay [1], the “Average Slope” value turned out to be 38.9 and the “Average % Agg.” value worked out at 73.5%.

On to `CNC[C@H](O)c1ccc(O)c(O)c1` [Epinephrine], for which, in assay [1], the “Average Slope” value is 30.5 and the “Average % Agg.” value is given as 73.1%.

On to Collagen, for which, in assay [1], the “Average Slope” value is reported as 44.0 and the “Average % Agg.” value was 74.9%.

For ristocetin, the “50% Avg.” value in assay [2] (setting [4]) is recorded as 29.5; in assay [2] (setting [5]), 33.5; in assay [2] (setting [6]), 32.0; in assay [2] (setting [7]) it was 33.5; in assay [2] (setting [8]), 33.0; in assay [2] (setting [9]) it was 28.5. The “50% Avg.” value in assay [3] (setting [4]) is given as 23.0; in assay [3] (setting [5]), 26.5; in assay [3] (setting [6]), 23.5; in assay [3] (setting [7]), 21.5; in assay [3] (setting [8]), 23.5; in assay [3] (setting [9]), 27.5. The “50% Slope” value in assay [2] (setting [4]) was 29.0 and 30.0; in assay [2] (setting [5]), 32.0 and 35.0; in assay [2] (setting [6]), 33.0 and 31.0; in assay [2] (setting [7]) it was 33.0 and 34.0; in assay [2] (setting [8]), 31.0 and 35.0; in assay [2] (setting [9]), 28.0 and 29.0. The “50% Slope” value in assay [3] (setting [4]) is 22.0 and 24.0; in assay [3] (setting [5]), 28.0 and 25.0; in assay [3] (setting [6]) it was 24.0 and 23.0; in assay [3] (setting [7]), 22.0 and 21.0; in assay [3] (setting [8]), 21.0 and 26.0; in assay [3] (setting [9]), 29.0 and 26.0. Besides, the “100% Avg.” value in assay [2] (Ristocetin 8.5 mg/ml) amounted to 42.0; in assay [2] (Ristocetin 9.0 mg/ml), 46.5; in assay [2] (Ristocetin 9.5 mg/ml), 40.5; in assay [2] (Ristocetin 10.0 mg/ml), 43.5; in assay [2] (Ristocetin 10.5 mg/ml), 39.5; in assay [2] (Ristocetin 11.0 mg/ml), 36.5. Further, the “100% Avg.” value in assay [3] (Ristocetin 8.5 mg/ml) turned out to be 25.5; in assay [3] (Ristocetin 9.0 mg/ml) it was 31.5; in assay [3] (Ristocetin 9.5 mg/ml) it was 31.5; in assay [3] (Ristocetin 10.0 mg/ml) it was 30.5; in assay [3] (Ristocetin 10.5 mg/ml) it was 31.5; in assay [3] (Ristocetin 11.0 mg/ml), 31.5. Moreover, the “100% Slope” value was 42.0 in assay [2] (Ristocetin 8.5 mg/ml); 47.0 and 46.0 in assay [2] (Ristocetin 9.0 mg/ml); 41.0 and 40.0 in assay [2] (Ristocetin 9.5 mg/ml); 41.0 and 46.0 in assay [2] (Ristocetin 10.0 mg/ml); 39.0 and 40.0 in assay [2] (Ristocetin 10.5 mg/ml); 41.0 and 32.0 in assay [2] (Ristocetin 11.0 mg/ml). Further, the “100% Slope” value in assay [3] (Ristocetin 8.5 mg/ml) is 23.0 and 28.0; in assay [3] (Ristocetin 9.0 mg/ml) it was 32.0 and 31.0; in assay [3] (Ristocetin 9.5 mg/ml), 31.0 and 32.0; in assay [3] (Ristocetin 10.0 mg/ml), 31.0 and 30.0; in assay [3] (Ristocetin 10.5 mg/ml), 30.0 and 33.0; in assay [3] (Ristocetin 11.0 mg/ml) it was 30.0 and 33.0. Besides, the “Difference 100 − 50” value in assay [2] (Ristocetin 8.5 mg/ml) is on record as 12.5; in assay [2] (Ristocetin 9.0 mg/ml) it was 13.0; in assay [2] (Ristocetin 9.5 mg/ml), 8.5; in assay [2] (Ristocetin 10.0 mg/ml), 10.0; in assay [2] (Ristocetin 10.5 mg/ml) it was 6.5; in assay [2] (Ristocetin 11.0 mg/ml) it was 8.0. Besides, the “Difference 100 − 50” value came out at 2.5 in assay [3] (Ristocetin 8.5 mg/ml); 5.0 in assay [3] (Ristocetin 9.0 mg/ml); 8.0 in assay [3] (Ristocetin 9.5 mg/ml); 9.0 in assay [3] (Ristocetin 10.0 mg/ml); 8.0 in assay [3] (Ristocetin 10.5 mg/ml); 4.0 in assay [3] (Ristocetin 11.0 mg/ml).
